Assay results published in patent US11407811B2, “Fusion protein, preparation method therefor and use thereof” (JIANGSU RONGTAI BIOTECH CO., LTD., priority 2017, dated 2022).

Experiments:
mouse spleen lymphocytes = test: Proliferation of mouse spleen lymphocytes (ConA, MTT); assay type: cell-based; details: dose 20 μg/mL
Protocol: Tris-NH4Cl was used to break the red blood cells, which were allowed to stand in an ice water bath for 4 min and centrifuged (1000 rpm, 5 min), the supernatant was discarded, and the cells were washed twice with sterile PBS.
The cells were statically cultured in a cell incubator at 37° C. for 48 h. After the completion of the culture, 20 μL of MTT was added to each well, and the culture was continued for 4 h. Finally, all the solutions in each well were discarded, 100 μL of DMSO was added to each well, and the mixture was shaken and detected by a microplate reader for OD value at 570 nm. 5 parallels were preformed for per well.

[1] = tested on: toe swelling in rat induced by carrageenan; test: Acute inflammation of toe swelling in rat induced by carrageenan; assay type: in vivo; details: 10 mg/kg (positive control), rat foot
Protocol: 80 SD rats were randomly divided into 8 groups with 10 mice for each group. […] The drug was administered once by injection, and the model group was given an equal volume of physiological saline and fed normally. On the third day, 0.1 mL of 1% carrageenan was injected subcutaneously into the right hind toes of the rats to induce inflammation. The foot volume was measured at 1 h, 3 h, 5 h, and 7 h after inflammation. The swelling degree of the foot was calculated according to the following formula: the swelling degree of the foot (mL)=the volume of the foot after inflammation—the volume before inflammation. The number of milliliters of spilled liquid was recorded (method: the protruding point of the right joint was circled with a ballpoint pen and used as a measurement mark, and the right hind feet of the rat were sequentially placed in the volume measuring device, so that the hind limbs were exposed outside the cylinder, and the depth of the immersion was limited to the overlap of the circle and the liquid level. After the foot entered the liquid, the liquid level was raised, and the volume of the spilled liquid was the volume of the right hind foot of the rat, and the normal volume of the right hind foot of each rat is sequentially determined).

[2] = tested on: IL-1β production by mouse peritoneal macrophages; test: IL-1β production by mouse peritoneal macrophages (ELISA); assay type: cell-based; details: dose 20 μg/mL
Protocol: (1) IL-1β production: mice were intraperitoneally injected with 1 mL of broth medium containing 6% starch, and three days later, the mouse peritoneal macrophages were aseptically taken, washed twice with a 1640 medium, and the cell concentration was adjusted to 2×10^6 cells/mL, inoculated into a 24-well culture plate at 1 mL/well, incubated for 3 h in a cell incubator, and shaken once every 30 min, so that the cells were allowed to adhere sufficiently. Then, the cells were washed twice with a culture liquid to remove un-adhered cells. […] The supernatant was taken as a sample for testing activity of IL-1β.
(2) Determination of IL-1β content: the detection was performed by using mouse IL-1β enzyme-linked immunosorbent assay kit from R&D company. According to the instructions of the kit, the procedures were as follows: the reaction well for the test samples and different concentrations of standards were sealed with sealing tapes, respectively, incubation was performed at 37° C. for 90 min; the plate was washed four times; a biotinylated antibody working solution (100 μL/well) was added, the reaction well was sealed with sealing tapes, and incubation was performed at 37° C. for 60 min; the plate was washed four times; an enzyme conjugate working solution (100 μL/well) was added, the reaction well was sealed with sealing tapes, incubation was performed at 37° C. for 30 min; the plate was washed four times; a developer (100 μL/well) was added, incubation was performed at 37° C. for 10 to 20 min, a stop solution (100 μL/well) was added and mixed and the OD450 value was measured.

[3] = tested on: peritoneal capillary permeability in mice; test: Peritoneal capillary permeability in mice (HAc, Evans blue); assay type: in vivo; details: mice, dose 10 mg/kg
Protocol: The drug was administered once by injection (EDSM needed to be administered twice a day), and the blank model group was given an equal volume of physiological saline and fed normally. On the 5th day, a 5 g/L Evans blue physiological saline solution was injected into the tail vein at […], followed by intraperitoneal injection ([…]) of a HAc solution (6 mL/L) to induce inflammation. After 20 min, the mice were sacrificed by cervical dislocation. 5 mL of physiological saline was intraperitoneally injected, the abdomen was gently rubbed for 2 min, the abdominal cavity was cut, a peritoneal washing solution was collected and centrifuged at 4000 rpm for 10 min, 1 mL of supernatant was taken, and 3 mL of physiological saline was added to obtain 4 mL of dilution. The absorbance OD value of the dilution was measured by an ultraviolet spectrophotometer at a wavelength of 590 nm, and the amount of pigment exudation was expressed by the OD590 nm value, and the peritoneal capillary permeability in mice was examined.

[4] = tested on: angiogenesis of chicken embryo chorioallantoic membrane; test: Chicken embryo chorioallantoic membrane (CAM) angiogenesis assay; assay type: in vivo; details: 10 μg (positive control), CAM, 72 hours
Text: In this study, CAM assay was used to investigate the activity of fusion protein I, protein II, protein III, protein IV, and protein V to inhibit angiogenesis in vivo. The study has shown that the biosynthesis rate of collagen reached the maximum on the 8th to 11th day of chicken embryo development, which was the most vigorous stage of angiogenesis, and the body's immune system had not yet been fully established at that time, and thus the chicken embryos developed to the 8th day was selected to be administered. […] The following steps were used.
(1) The White Leghorn chicken embryos on day 6 were cultured in a 37° C. incubator at 60%-70% humidity for two days.
(2) A 1.0 cm×1.0 cm window was drilled above the chicken embryo air sac, and the inner membrane was torn off with forceps to expose the chorioallantoic membrane. Lens paper having a diameter of 5 mm was used as a loading carrier, and was placed on the chorioallantoic membrane of the chicken embryo air sac. Filter paper with PBS was used as a blank group, and the administration group was added with different doses of fusion protein.
(3) The chicken embryo air sac was sealed with a sterile transparent tape, and after culturing at 37° C. for 72 hours, the chicken embryo air sac was opened, and a fixative (formaldehyde:acetone=1:1) was added for fixation for 15 minutes. The chorioallantoic membrane to which the lens paper was adhered was taken out, the distribution of the new blood vessels was observed, and the new blood vessels were counted and photographed. Five replicates were set for each dose and the results were statistically analyzed.

Compound | A570 nm/A630 nm (mouse spleen lymphocytes) | PI (%) (mouse spleen lymphocytes) | Swelling degree 1 h ([1]; 1 h after carrageenan) | Swelling degree 3 h ([1]; 3 h after carrageenan) | Swelling degree 5 h ([1]; 5 h after carrageenan) | Swelling degree 7 h ([1]; 7 h after carrageenan) | IL-1β [2] | PI (%) [2] | Exudation rate (OD590) [3] | Blood vessel number [4]
C[C@@H]1C[C@H]2[C@@H]3CCC4=CC(=O)C=C[C@]4(C)[C@@]3(F)[C@@H](O)C[C@]2(C)[C@@]1(O)C(=O)CO [Dex, dexamethasone, reference compound] | 0.3401 ± 0.1131 | 41.19% | 0.21 ± 0.11 mL | 0.23 ± 0.04 mL | 0.25 ± 0.09 mL | 0.27 ± 0.12 mL | 310.25 ± 20.32 pg/mL | 63.36% | 0.22 ± 0.03 | 
Avastin: positive control group in HRCEC and CAM assays [reference compound] |  |  |  |  |  |  |  |  |  | 57 ± 16
